Entries after “also recorded” stand apart in the source; their conditions may differ.
How the values were obtained:
[1] = tested on: sympathetic and sensory neurons; assay: Neuroprotection in primary culture of sympathetic and sensory neurons (trophic deprivation); assay type: cell-based
[2] = tested on: experimental diabetic neuropathy; assay: Lower extremity nerve histomorphology (sciatic and sural nerve) in STZ-diabetic mice; assay type: in vivo; details: 30 mg/kg oral daily, five weeks post-diabetes induction
Experimental: In total, 20 mice were injected with 100 mg/kg bodyweight of streptozotocin (STZ, […], Sigma Aldrich) in 0.1M citrate buffer (pH 4.5) on two consecutive days respectively, to induce diabetes type 1^27. Prior to the first injection and in weekly intervals thereafter, all animals were weighted and underwent tail prick blood sugar measurements using a clinical grade monitoring system (Contour One, Ascensia Diabetes Care, Mississauga, Ontario) as previously described. Mice were considered diabetic when blood glucose was at least 15 mmol/L (270 mg/dl). Prior to diabetes induction the mice were block randomized into experimental groups (n=10 Foretinib treatment, n=5 vehicle treatment, n=5 non-treated diabetic control). An additional 5 non-diabetic animals served as a healthy control. Foretinib treatments started 1-week post-diabetes induction. Foretinib was prepared fresh daily by dissolving 6 mg Foretinib in 1 ml of 1% (Hydroxypropyl)-methyl cellulose (09963, Sigma Aldrich) and 0.2% sodium dodecyl sulfate ([…], Sigma Aldrich) in sterile H2O. […] A custom-trained deep learning model based on the open-source software AxonDeepSeg^29 determined axon diameter and myelin sheath thickness and g-ratio for entire nerve cross sections.

Rat sympathetic neurons = assay: NGF withdrawal in compartmented cultures of sympathetic neurons; assay type: cell-based
Experimental: A) Rat sympathetic neurons grown in compartmented cultures for one week in the presence of NGF were switched into the indicated conditions for 48 h and immunostained for βIII-tubulin (white). Schematics on the left show the configurations used. In the top panels, NGF was maintained in all compartments. In the center and bottom panels, NGF was withdrawn from all compartments. At the bottom panel and 500 nM foretinib (Foret) added to one of the sides and the center compartment. Fluorescence images show βIII-tubulin-positive axons in the sides compartment. At the right, enlarged images of the axons per condition. While the NGF deprived neurons degenerated (axonal beading and degradation in the central panel), Foretinib supplemented (lower panel) axons kept growing Red arrow at the top of the image indicates the distance of the axonal extension during 48 h since NGF withdrawal. Size bar: […].B) MNs were differentiated from healthy human iPS (Line ID 1016A)^62 as described^63. 3 day old MNs were treated with either 1 μM of Thapsigargin (Thaps) or 1 μM Tunicamycin (Tuni) and/or with either 0.5 uM of Foretinib. […] C) Quantitative representation of the results as in B. Error bars represent standard error; *p<0.05; ***p<0.005; t-test. […] E) Quantitative representation of changes in mouse body weight in dependence of the indicated IP daily doses of Foretinib. […]

[3] = tested on: sympathetic and sensory neurons; details: in vitro, previously shown (ref 17); cited from earlier work
[4] = tested on: Embryonic rat sensory neurons; assay: Myelination in cultured embryonic rat sensory neurons (MBP-positive area); assay type: cell-based; details: primary wt neuronal/SC co-cultures, 10 days since induction of myelination, n=4, p<0.0001
From the text: A) Embryonic rat sensory neurons were harvested, dissociated and cultured. Myelination was induced in presence of Foretinib (right image) or vehicle only (left image). 10 days since induction of myelination the cultures were fixed and immunosatined for myelin basic protein (MBP) (green), bIII-tubulin (red) and DAPI (blue). Scale bar: […]. B) Quantitative representation of the area proportion occupied by MBP-positive myelin segments (as in A) n=4, p<0.0001.

[5] = tested on: wt and Sod1^G93A cultured mouse MN; assay: Survival of trophic factor-deprived cultured mouse motor neurons; assay type: cell-based

COc1cc2c(Oc3ccc(NC(=O)C4(C(=O)Nc5ccc(F)cc5)CC4)cc3F)ccnc2cc1OCCCN1CCOCC1 [Foretinib, N1-[3-Fluoro-4-({6-methoxy-7-[3-(morpholin-4-yl)propoxy]quinolin-4-yl}oxy)phenyl]-N′1-(4-fluorophenyl)cyclopropane-1,1-dicarboxamide]
effective neuroprotective concentration [1]: > 100 nM
peripheral nerve histomorphology (axon diameter, myelin sheath thickness, g-ratio) [2]: did not affect peripheral nerve histomorphology
axonal growth after NGF withdrawal (Rat sympathetic neurons; 500 nM foretinib in center and one side compartment, 48 h, preliminary n=2): induced axonal growth, similarly to the NGF containing cultures; also recorded: greater axonal length of the neurons than neurons cultured with NGF
cell body and axonal survival after NGF withdrawal (Rat sympathetic neurons; 500 nM foretinib, 48 hours post NGF withdrawal): supported cell bodies and axonal survival
axonal die-back under trophic deprivation [3]: prevents axonal die-back mechanisms
axonal myelination (area proportion of MBP-positive myelin segments) [4]: significantly improved axonal myelination
survival of trophic factor-deprived motor neurons [5]: induced survival

Reference: patent publication US20250281496A1, “METHODS OF TREATING NEUROPATHY USING FORETINIB AND COMPOSITIONS THEREOF” (INDIANA UNIVERSITY RESEARCH AND TECHNOLOGY CORPORATION, priority 2022, published 2025)
